Assay results as given in ChEMBL document CHEMBL3784916, “Synthesis and anticancer activity of novel fluorinated asiatic acid derivatives” (Eur J Med Chem, 2016).
Activity calls are given as the source filed them. No cut-off for these calls is given here.

What was measured:
HeLa [1] = assay: Induction of apoptosis in human HeLa cells assessed as dead cells at 2.68 uM after 48 hrs by annexin V-FITC/propidium iodide staining-based flow cytometry ( Rvb = 0.067%); type: functional
HeLa [2] = assay: Downregulation of cyclin D3 level in human HeLa cells after 48 hrs by Western blot method; type: functional, cell-based
HeLa [3] = assay: Induction of cell cycle arrest in human HeLa cells assessed as accumulation at S phase at 1.34 uM after 24 hrs by propidium iodide staining-based flow cytometry (reference value: 35.72%); type: functional
HeLa [4] = assay: Induction of apoptosis in human HeLa cells assessed as late apoptotic cells at 1.34 uM after 48 hrs by annexin V-FITC/propidium iodide staining-based flow cytometry ( Rvb = 1.28%); type: functional
HeLa [5] = assay: Induction of apoptosis in human HeLa cells assessed as dead cells at 0.67 uM after 48 hrs by annexin V-FITC/propidium iodide staining-based flow cytometry ( Rvb = 0.067%); type: functional
Jurkat = assay: Cytotoxicity against human Jurkat cells after 72 hrs by XTT assay; type: functional, cell-based
HeLa [6] = assay: Induction of apoptosis in human HeLa cells assessed as early apoptotic cells at 2.68 uM after 48 hrs by annexin V-FITC/propidium iodide staining-based flow cytometry ( Rvb = 3.24%); type: functional
BJ = assay: Cytotoxicity against human BJ cells after 72 hrs by MTT assay; type: cell-based; settings: Homo sapiens, BJ
HeLa [7] = assay: Induction of apoptosis in human HeLa cells assessed as increase in cleaved caspase-3 level at 2.68 uM after 48 hrs by Western blot method; type: functional, cell-based
MCF7 = assay: Cytotoxicity against human MCF7 cells after 72 hrs by MTT assay; type: functional, cell-based
HeLa [8] = assay: Induction of apoptosis in human HeLa cells assessed as upregulation of Bax level after 48 hrs by Western blot method; type: functional, cell-based
HeLa [9] = assay: Induction of apoptosis in human HeLa cells assessed as increase in cleaved caspase-8 level at 2.68 uM after 48 hrs by Western blot method; type: functional, cell-based
HeLa [10] = assay: Induction of apoptosis in human HeLa cells assessed as increase in cleaved PARP level at 2.68 uM after 48 hrs by Western blot method; type: functional, cell-based
HeLa [11] = assay: Potency index, ratio of asiatic acid IC50 to compound IC50 for human HeLa cells; type: functional
HeLa [12] = assay: Induction of apoptosis in human HeLa cells assessed as early apoptotic cells at 1.34 uM after 48 hrs by annexin V-FITC/propidium iodide staining-based flow cytometry ( Rvb = 3.24%); type: functional
[13] = (§1) Cytotoxicity against human MIAPaCa2 cells after 72 hrs by MTT assay; type: functional, cell-based; settings: MIA PaCa-2, 72 h
MIA PaCa-2 = assay: as §1; type: functional, cell-based
HeLa [14] = assay: Induction of apoptosis in human HeLa cells assessed as rupture of cell membrane at 2.68 uM after 48 hrs by Hoechst 33258 staining-based fluorescence microscopy; type: functional
HeLa [15] = assay: Induction of cell cycle arrest in human HeLa cells assessed as accumulation at G0/G1 phase at 2.68 uM after 24 hrs by propidium iodide staining-based flow cytometry (reference value: 51.41%); type: functional
HeLa [16] = assay: Induction of apoptosis in human HeLa cells assessed as increase in Bax to Bcl2 ratio at 0.67 to 2.68 uM after 48 hrs by Western blot method; type: functional, cell-based
HeLa [17] = assay: Induction of apoptosis in human HeLa cells assessed as chromatin condensation at 0.67 to 1.34 uM after 48 hrs by Hoechst 33258 staining-based fluorescence microscopy; type: functional, cell-based
HeLa [18] = assay: Induction of cell cycle arrest in human HeLa cells assessed as accumulation at S phase at 2.68 uM after 24 hrs by propidium iodide staining-based flow cytometry (reference value: 35.72%); type: functional
[19] = (§2) Cytotoxicity against human PC3 cells after 72 hrs by MTT assay; type: functional, cell-based; settings: PC-3, 72 h
PC-3 = assay: as §2; type: functional, cell-based
HeLa [20] = assay: Induction of apoptosis in human HeLa cells assessed as cell shrinkage at 0.67 to 1.34 uM after 48 hrs by Hoechst 33258 staining-based fluorescence microscopy; type: functional
HeLa [21] = assay: Induction of cell cycle arrest in human HeLa cells assessed as accumulation at G0/G1 phase at 1.34 uM after 48 hrs by propidium iodide staining-based flow cytometry (reference value: 54.05%); type: functional
HeLa [22] = assay: Induction of apoptosis in human HeLa cells assessed as viable cells at 0.67 uM after 48 hrs by annexin V-FITC/propidium iodide staining-based flow cytometry ( Rvb = 95.4%); type: functional; settings: read-out: Activity
HeLa [23] = assay: Induction of apoptosis in human HeLa cells assessed as downregulation of Bcl2 level after 48 hrs by Western blot method; type: functional, cell-based
HeLa [24] = assay: Induction of cell cycle arrest in human HeLa cells assessed as accumulation at G0/G1 phase at 1.34 uM after 24 hrs by propidium iodide staining-based flow cytometry (reference value: 51.41%); type: functional
HeLa [25] = assay: Induction of apoptosis in human HeLa cells assessed as reduction in adherent cells at 0.67 to 1.34 uM after 48 hrs by Hoechst 33258 staining-based fluorescence microscopy; type: functional, cell-based
HeLa [26] = assay: Downregulation of cyclin E level in human HeLa cells at 0.67 to 2.68 uM after 48 hrs by Western blot method; type: functional, cell-based
HeLa [27] = assay: Induction of apoptosis in human HeLa cells assessed as nuclear fragmentation at 2.68 uM after 48 hrs by Hoechst 33258 staining-based fluorescence microscopy; type: functional, cell-based
HT-29 = assay: Cytotoxicity against human HT-29 cells after 72 hrs by MTT assay; type: functional, cell-based; settings: HT-29, 72 h
HeLa [28] = assay: Induction of cell cycle arrest in human HeLa cells assessed as accumulation at subG0/G1 phase at 2.68 uM after 48 hrs by propidium iodide staining-based flow cytometry; type: functional
HeLa [29] = assay: Induction of apoptosis in human HeLa cells assessed as increase in t-Bid level at 2.68 uM after 48 hrs by Western blot method; type: functional, cell-based
HeLa [30] = assay: Induction of apoptosis in human HeLa cells assessed as viable cells at 1.34 uM after 48 hrs by annexin V-FITC/propidium iodide staining-based flow cytometry ( Rvb = 95.4%); type: functional; settings: read-out: Activity
HeLa [31] = assay: Induction of apoptosis in human HeLa cells assessed as late apoptotic cells at 2.68 uM after 48 hrs by annexin V-FITC/propidium iodide staining-based flow cytometry ( Rvb = 1.28%); type: functional
HeLa [32] = assay: Potency index, ratio of cisplatin IC50 to compound IC50 for human HeLa cells; type: functional
HeLa [33] = assay: Induction of apoptosis in human HeLa cells assessed as dead cells at 1.34 uM after 48 hrs by annexin V-FITC/propidium iodide staining-based flow cytometry ( Rvb = 0.067%); type: functional
HeLa [34] = assay: Cytotoxicity against human HeLa cells after 72 hrs by MTT assay; type: functional, cell-based
HeLa [35] = assay: Upregulation of p27 kip1 level in human HeLa cells at 1.34 to 2.68 uM after 48 hrs by Western blot method; type: functional, cell-based
HeLa [36] = assay: Induction of apoptosis in human HeLa cells assessed as late apoptotic cells at 0.67 uM after 48 hrs by annexin V-FITC/propidium iodide staining-based flow cytometry ( Rvb = 1.28%); type: functional
A-375 = assay: Cytotoxicity against human A375 cells after 72 hrs by MTT assay; type: functional, cell-based
HeLa [37] = assay: Upregulation of p21 cip1/waf1 level in human HeLa cells at 1.34 to 2.68 uM after 48 hrs by Western blot method; type: functional, cell-based
HeLa [38] = assay: Induction of apoptosis in human HeLa cells assessed as viable cells at 2.68 uM after 48 hrs by annexin V-FITC/propidium iodide staining-based flow cytometry ( Rvb = 95.4%); type: functional; settings: read-out: Activity
HeLa [39] = assay: Induction of apoptosis in human HeLa cells assessed as early apoptotic cells at 0.67 uM after 48 hrs by annexin V-FITC/propidium iodide staining-based flow cytometry ( Rvb = 3.24%); type: functional

**Q.** With C[C@H]1[C@H](C)CC[C@@]23CC[C@]4(C)[C@](OC2=O)([C@H](F)C[C@@H]2[C@@]5(C)C(C=O)=C[C@@](C)(COC(=O)/C=C/c6ccccc6)[C@@H]5CC[C@]24C)[C@H]13 as the compound, how does the Activity (HeLa [1]) read?
**A.** 2.86%

**Q.** What about the Activity (HeLa [2]) of the same compound?
**A.** Dose-dependent effect

**Q.** And the Activity (HeLa [3])?
**A.** 22.55%

**Q.** What about the Activity (HeLa [4]) of the same compound?
**A.** 2.6%

**Q.** And the Activity (HeLa [5])?
**A.** 0.193%

**Q.** And the Activity (Jurkat)?
**A.** Dose-dependent effect

**Q.** And the IC50 (Jurkat)?
**A.** 680 nM

**Q.** What about the Activity (HeLa [6]) of the same compound?
**A.** 12.1%

**Q.** And the IC50 (BJ)?
**A.** 1940 nM

**Q.** What about the Activity (HeLa [7]) of the same compound?
**A.** Active

**Q.** What about the Activity (MCF7) of the same compound?
**A.** Dose-dependent effect

**Q.** And the IC50 (MCF7; MCF7, 72 h)?
**A.** 840 nM

**Q.** What about the Activity (HeLa [8]) of the same compound?
**A.** Dose-dependent effect

**Q.** And the Activity (HeLa [9])?
**A.** Active

**Q.** What about the Activity (HeLa [10]) of the same compound?
**A.** Active

**Q.** And the “Ratio IC50” value (HeLa [11])?
**A.** 79

**Q.** What about the Activity (HeLa [12]) of the same compound?
**A.** 5.25%

**Q.** What about the IC50 [13] of the same compound?
**A.** 1130 nM

**Q.** What about the Activity (MIA PaCa-2) of the same compound?
**A.** Dose-dependent effect

**Q.** And the Activity (HeLa [14])?
**A.** Active

**Q.** What about the Activity (HeLa [15]) of the same compound?
**A.** 72.72%

**Q.** And the Activity (HeLa [16])?
**A.** Active

**Q.** What about the Activity (HeLa [17]) of the same compound?
**A.** Active

**Q.** What about the Activity (HeLa [18]) of the same compound?
**A.** 11.05%

**Q.** And the IC50 [19]?
**A.** 740 nM

**Q.** And the Activity (PC-3)?
**A.** Dose-dependent effect

**Q.** What about the Activity (HeLa [20]) of the same compound?
**A.** Active

**Q.** What about the Activity (HeLa [21]) of the same compound?
**A.** 76.03%

**Q.** What about the viability at 0.67 µM (HeLa [22]) of the same compound?
**A.** 94.7%

**Q.** What about the Activity (HeLa [23]) of the same compound?
**A.** Dose-dependent effect

**Q.** And the Activity (HeLa [24])?
**A.** 67.26%

**Q.** What about the Activity (HeLa [25]) of the same compound?
**A.** Active

**Q.** And the Activity (HeLa [26])?
**A.** Active

**Q.** And the Activity (HeLa [27])?
**A.** Active

**Q.** And the IC50 (HT-29)?
**A.** 710 nM

**Q.** And the Activity (HeLa [28])?
**A.** 11.39%

**Q.** What about the Activity (HeLa [29]) of the same compound?
**A.** Active

**Q.** What about the viability at 1.34 µM (HeLa [30]) of the same compound?
**A.** 92%

**Q.** What about the Activity (HeLa [31]) of the same compound?
**A.** 22.6%

**Q.** What about the “Ratio IC50” value (HeLa [32]) of the same compound?
**A.** 3.5

**Q.** What about the Activity (HeLa [33]) of the same compound?
**A.** 0.172%

**Q.** What about the IC50 (HeLa [34]) of the same compound?
**A.** 670 nM

**Q.** And the Activity (HeLa [35])?
**A.** Active

**Q.** What about the Activity (HeLa [36]) of the same compound?
**A.** 1.23%

**Q.** And the Activity (A-375)?
**A.** Dose-dependent effect

**Q.** And the IC50 (A-375; A-375, 72 h)?
**A.** 720 nM

**Q.** And the Activity (HeLa [37])?
**A.** Active

**Q.** What about the viability at 2.68 µM (HeLa [38]) of the same compound?
**A.** 62.4%

**Q.** And the Activity (HeLa [39])?
**A.** 3.65%
